The supplement of paper PMC10331698
± gives the standard deviation of the averaged measurements.

Experiments:
Test in all cases: level (log10 ratio to DMSO vehicle control); higher = higher biomarker level / cell amount than vehicle control
Details in all cases: in DMSO
[1] = compound: C=C(C)C(=O)OCC(F)(F)C(F)(F)C(F)(F)C(F)(F)C(F)(F)C(F)(F)C(F)(F)F
Protocol: (§1)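 BioMAP Diversity Plus panel of 12 human primary cell co-culture systems (3C, 4H, LPS, SAg, BT, BF4T, BE3C, CASM3C, HDF3CGF, KF3CT, MyoF, Mphg). Compounds were added 1 h before stimulation and left for 24 h (MyoF 48 h; BT 72 h for soluble read-outs or 6 d for IgG). Biomarkers were read by ELISA, cytotoxicity by SRB, PBMC viability and proliferation by Alamar Blue. Each well value was divided by the mean of 8 DMSO control wells on the same plate and log10 transformed; duplicate blinded samples were tested at 4 concentrations.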

[2] = compound: C=CC(=O)OCCC(F)(F)C(F)(F)C(F)(F)C(F)(F)F [2-(Perfluorobutyl)ethyl acrylate]
Protocol: as §1

[3] = compound: FC(F)(F)C(F)(F)C(F)(F)C(F)(F)C(F)(F)C(F)(F)C(F)(F)CCI [1-Iodo-1H,1H,2H,2H-perfluorononane]
Protocol: as §1

[4] = compound: NC(=O)C(F)(F)C(F)(F)C(F)(F)C(F)(F)C(F)(F)C(F)(F)C(F)(F)F [Perfluorooctanamide]
Protocol: as §1

[5] = compound: O=C(O)C(F)(F)C(F)(F)C(F)(F)C(=O)O [Hexafluoroglutaric acid]
Protocol: as §1

[6] = compound: O=S(=O)(O)C(F)(F)C(F)(F)C(F)(F)C(F)(F)F [Perfluorobutanesulfonic acid]
Protocol: as §1

[7] = compound: OCC(F)(F)C(F)(F)C(F)(F)F [1H,1H-Heptafluorobutanol]
Protocol: as §1

| Test System | level (log10) ([1]; 6700 nM) | level (log10) ([1]; 20000 nM) | level (log10) ([2]; 6700 nM) | level (log10) ([2]; 20000 nM) | level (log10) ([2]; 60000 nM) | level (log10) ([3]; 6700 nM) | level (log10) ([3]; 20000 nM) | level (log10) ([4]; 6700 nM) | level (log10) ([4]; 20000 nM) | level (log10) ([4]; 60000 nM) | level (log10) ([5]; 6700 nM) | level (log10) ([5]; 20000 nM) | level (log10) ([5]; 60000 nM) | level (log10) ([6]; 6700 nM) | level (log10) ([6]; 20000 nM) | level (log10) ([6]; 60000 nM) | level (log10) ([7]; 6700 nM) | level (log10) ([7]; 20000 nM) | level (log10) ([7]; 60000 nM) |
| --- | --- | --- | --- | --- | --- | --- | --- | --- | --- | --- | --- | --- | --- | --- | --- | --- | --- | --- | --- |
| 4H:CCL26/Eotaxin-3 | 0.0385 ± 0.043 | 0.0315 ± 0.047 | -0.0355 ± 0.039 | -0.006 ± 0.0071 | 0.0135 ± 0.0078 | 0.018 ± 0.0057 | -0.004 ± 0.028 | 0.033 ± 0.055 | 0.021 ± 0.031 | 0.0275 ± 0.04 | 0.0155 ± 0.035 | 0.0155 ± 0.013 | 0.0235 ± 0.0078 | -0.0025 ± 0.054 | -0.001 ± 0.051 | -0.048 ± 0.028 | 0.017 ± 0.03 | 0.01 ± 0.014 | 0.0255 ± 0.021 |
| 4H:CD62P/P-selectin | -0.0205 ± 0.076 | -0.0315 ± 0.063 | 0.0065 ± 0.064 | -0.064 ± 0.047 | -0.102 ± 0.036 | 0.0005 ± 0.037 | -0.0185 ± 0.06 | -0.0005 ± 0.0078 | -0.0225 ± 0.022 | -0.02 ± 0.024 | 0.0065 ± 0.0035 | -0.035 ± 0.0014 | -0.05 ± 0.064 | -0.0155 ± 0.035 | 0.0045 ± 0.016 | -0.0085 ± 0.015 | 0.0195 ± 0.064 | -0.007 ± 0.14 | 0.044 ± 0.15 |
| 4H:CD87/uPAR | -0.019 ± 0.025 | -0.0015 ± 0.028 | -0.005 ± 0.038 | 0.0055 ± 0.0035 | 0.025 ± 0.0085 | 0.0135 ± 0.00071 | 0.0025 ± 0.026 | -0.0055 ± 0.037 | 0.0105 ± 0.021 | -0.0285 ± 0.012 | -0.046 ± 0.023 | -0.027 ± 0.057 | -0.005 ± 0.031 | 0.0115 ± 0.052 | 0.0235 ± 0.022 | 0.025 ± 0.021 | -0.0055 ± 0.035 | 0.004 ± 0.071 | 0.032 ± 0.09 |
| 4H:CD106/VCAM-1 | -0.0205 ± 0.00071 | 0.0005 ± 0.021 | -0.0215 ± 0.013 | -0.0495 ± 0.056 | -0.123 ± 0.085 | -0.003 ± 0.027 | -0.0585 ± 0.083 | -0.023 | -0.0235 ± 0.0035 | -0.01 ± 0.03 | -0.005 ± 0.014 | -0.005 ± 0.03 | -0.0045 ± 0.012 | -0.024 ± 0.016 | -0.029 ± 0.028 | 0.001 ± 0.033 | 0 ± 0.03 | 0.0325 ± 0.023 | 0.027 ± 0.048 |
| 4H:SRB | 0.0005 ± 0.029 | -0.0035 ± 0.018 | -0.003 ± 0.0085 | 0.0105 ± 0.021 | -0.0205 ± 0.016 | 0.0165 ± 0.0092 | 0.024 ± 0.024 | -0.0005 ± 0.005 | -0.008 ± 0.0057 | 0.0085 ± 0.028 | -0.0005 ± 0.0092 | 0.003 ± 0.016 | 0.011 ± 0.034 | 0.0005 ± 0.0064 | 0.002 ± 0.0028 | 0 ± 0.0099 | -0.005 ± 0.0071 | -0.0005 ± 0.013 | 0.0065 ± 0.005 |
| 4H:VEGFR2 | 0.0165 ± 0.0064 | 0.0365 ± 0.05 | 0.01 | -0.006 ± 0.017 | -0.0035 ± 0.037 | -0.0015 ± 0.026 | 0.0225 ± 0.06 | -0.025 ± 0.0099 | -0.0405 ± 0.037 | -0.021 ± 0.025 | 0.0005 ± 0.016 | -0.04 ± 0.0099 | -0.0095 ± 0.0078 | -0.049 ± 0.04 | -0.0215 ± 0.026 | -0.012 ± 0.0071 | 0.0085 ± 0.026 | -0.0015 ± 0.0035 | 0.003 ± 0.035 |
| BE3C:CD54/ICAM-1 | 0.007 ± 0.0014 | 0.006 ± 0.0085 | -0.0045 ± 0.0035 | -0.0175 ± 0.0064 | -0.037 ± 0.03 | 0.0115 ± 0.005 | -0.009 ± 0.016 | -0.012 ± 0.0042 | -0.0075 ± 0.012 | -0.022 ± 0.033 | 0.018 ± 0.0042 | 0.0095 ± 0.018 | 0.009 ± 0.02 | -0.0185 ± 0.0021 | -0.009 ± 0.0028 | -0.021 ± 0.0057 | -0.0035 ± 0.0092 | -0.0105 ± 0.00071 | 0.0085 ± 0.011 |
| BE3C:CD87/uPAR | 0.0015 ± 0.016 | -0.004 ± 0.023 | 0.014 ± 0.021 | 0.0125 ± 0.025 | -0.018 ± 0.0071 | 0.0115 ± 0.018 | 0.016 ± 0.0014 | -0.0475 ± 0.0035 | -0.0065 ± 0.035 | -0.004 ± 0.028 | -0.0045 ± 0.0092 | -0.01 ± 0.014 | -0.0125 ± 0.011 | -0.035 ± 0.0028 | -0.044 ± 0.016 | -0.037 ± 0.027 | -0.0115 ± 0.0092 | 0.032 ± 0.018 | 0.0015 ± 0.021 |
